Among the test systems are Escherichia coli IS117#; Escherichia coli IS37#; Shigella dysenteriae; Candida albicans; Candida glabrata; Streptococcus agalactiae; Escherichia coli BW25113.
Holding throughout (assay): ≥ marks a high value that may be exact or a test limit, other limits are often not marked, values filed in µg/mL are converted to µM
The test system of test [1] is Candida albicans ATCC 2002.
The subject of test [2] is Candida albicans ATCC 90028.
Test [3] relates to Candida parapsilosis ATCC 22019.
Test [4] relates to Enterobacter cloacae ATCC 13047.
Test [5] has as its system Enterococcus faecalis ATCC 29212.
Test [6] relates to Escherichia coli ATCC 25922.
Test [7] has as its system Klebsiella pneumoniae ATCC 700603.
For test [8], the system named is Pseudomonas aeruginosa ATCC 27853.
Test [9] deals with Pseudomonas aeruginosa CMCCB 1010.
In test [10] the test system is Staphylococcus aureus ATCC 25923.
For test [11], the system named is Staphylococcus aureus IS10#.
The subject of test [12] is Staphylococcus aureus IS37#.
Test [13] has as its system Mycobacterium tuberculosis H37Rv.
Test [14] deals with Mycobacterium tuberculosis.
Test [15] has as its system Pseudomonas aeruginosa ATCC 9027.
The subject of test [16] is Bacillus subtilis DSM 347.
Test [17] concerns Escherichia coli DH5alpha.
The subject of test [18] is Franconibacter helveticus DSM 18396.
Test [19] has as its system Kocuria rhizophila DSM 348.
For test [20], the system named is Escherichia coli ATCC 11219.
The test system of test [21] is Klebsiella pneumoniae ATCC 10031.
Test [22] relates to Pseudomonas aeruginosa ATCC 13388.
Test [23] has as its system Salmonella enterica subsp. enterica serovar Typhimurium ATCC 14028.
The test system of test [24] is Staphylococcus aureus ATCC 6538.
Test [25] has as its system Acinetobacter johnsonii NCDC 0072.
In test [26] the test system is Bacillus cereus NCDC 0240.
The test system of test [27] is Escherichia coli MTCC 0723.
For test [28], the system named is Listeria monocytogenes ATCC 19111.
Test [29] deals with Pseudomonas aeruginosa NCDC 0105.
Test [30] deals with Staphylococcus aureus ATCC 29213.
Test [31] concerns Staphylococcus aureus NCDC 0111.
For test [32], the system named is Escherichia coli BW25113 ΔsbmA.
The test system of test [33] is Escherichia coli BW25113 ΔwaaG.

Each structure is given as a SMILES string. Converted amounts (≈) assume the structure as drawn. Some results are limits rather than exact numbers.

Broadly, the MIC is the smallest concentration in the dilution series that meets the test's criterion for growth inhibition. Read a high MIC as a need for much substance. Take `CC[C@H](C)[C@H](NC(=O)[C@H](CC(C)C)NC(=O)[C@@H]1CCCN1C(=O)[C@H](Cc1ccccc1)NC(=O)[C@@H](N)Cc1ccccc1)C(=O)N[C@@H](C)C(=O)NCC(=O)N[C@@H](CC(C)C)C(=O)N[C@@H](C)C(=O)N[C@@H](C)C(=O)N[C@@H](CCCN=C(N)N)C(=O)N[C@@H](Cc1ccccc1)C(=O)N[C@@H](CC(C)C)C(=O)N1CCC[C@H]1C(=O)N[C@@H](CCCCN)C(=O)N[C@H](C(=O)N[C@@H](Cc1ccccc1)C(=O)N[C@H]1CSSC[C@@H](C(=O)O)NC(=O)[C@H](CCCN=C(N)N)NC(=O)[C@H](CCCCN)NC(=O)[C@H]([C@@H](C)O)NC(=O)[C@H]([C@@H](C)CC)NC(=O)[C@H](CO)NC1=O)[C@@H](C)CC` [FFPLIAGLAARFLPKIFCSITKRC]: the MIC worked out at 1.84 µM (≈ 5 µg/mL) in [1]; 3.69 µM (≈ 9.99 µg/mL) in test [2]; 7.37 µM (≈ 20 µg/mL) in [3]; 0.921 µM (≈ 2.5 µg/mL) in test [4]; 1.84 µM (≈ 5 µg/mL) in test [5]; 0.368 µM (≈ 0.999 µg/mL) in test [6]. Further, the minimum inhibitory concentration (MIC) was 3.69 µM (≈ 9.99 µg/mL) against Escherichia coli IS117#; 0.921 µM (≈ 2.5 µg/mL) in the test on Escherichia coli IS37#; 0.921 µM (≈ 2.5 µg/mL) in [7]; 3.69 µM (≈ 9.99 µg/mL) in test [8]; 1.84 µM (≈ 5 µg/mL) in test [9]; 3.69 µM (≈ 9.99 µg/mL) in the test with Shigella dysenteriae. Also, the figures for the MIC in test [10], in test [11] and in test [12] were 1.84 µM (≈ 5 µg/mL), 3.69 µM (≈ 9.99 µg/mL) and 1.84 µM (≈ 5 µg/mL), respectively.

Turning to `CC[C@H](C)[C@H](NC(=O)[C@H](CC(C)C)NC(=O)[C@H](CO)NC(=O)[C@@H]1CCCN1C(=O)[C@@H](NC(=O)[C@H](C)NC(=O)[C@H](CCCCN)NC(=O)[C@H](CCSC)NC(=O)[C@H](C)NC(=O)[C@H](CC(C)C)NC(=O)[C@H](CCCCN)NC(=O)CNC(=O)[C@H](CC(C)C)NC(=O)[C@H](Cc1ccccc1)NC(=O)CNC(=O)[C@H](Cc1c[nH]c2ccccc12)NC(=O)[C@@H](N)Cc1ccccc1)C(C)C)C(=O)NCC(=O)NCC(=O)N[C@@H](CC(N)=O)C(=O)N[C@@H](CCCCN)C(=O)N[C@@H](CO)C(=O)N[C@@H](CO)C(=O)N[C@@H](CO)C(=O)N[C@@H](CCCCN)C(=O)O` [FWGFLGKLAMKAVPSLIGGNKSSSK], the MIC with Candida albicans was 12.5 µM (≈ 32.8 µg/mL); with Candida glabrata, not below 50 µM; in test [6] it was 24 µM (≈ 63 µg/mL); in test [13], 21.4 µM (≈ 56.2 µg/mL); in test [14], 30.5 µM (≈ 80 µg/mL); in [15], 15 µM (≈ 39.4 µg/mL). Further, the MIC was determined as 10 µM (≈ 26.2 µg/mL) in test [10] and 15 µM (≈ 39.4 µg/mL) against Streptococcus agalactiae.

On to `CC[C@H](C)[C@H](NC(=O)CN)C(=O)NCC(=O)N[C@@H](CCCCN)C(=O)N[C@@H](Cc1ccccc1)C(=O)N[C@@H](CC(C)C)C(=O)N[C@@H](Cc1cnc[nH]1)C(=O)N[C@@H](CO)C(=O)N[C@@H](C)C(=O)N[C@@H](CCCCN)C(=O)N[C@@H](CCCCN)C(=O)N[C@@H](Cc1ccccc1)C(=O)NCC(=O)N[C@@H](CCCCN)C(=O)N[C@@H](C)C(=O)N[C@@H](Cc1ccccc1)C(=O)N[C@@H](C)C(=O)NCC(=O)N[C@@H](CCC(=O)O)C(=O)N[C@H](C(=O)N[C@@H](CCSC)C(=O)N[C@@H](CC(N)=O)C(=O)N[C@@H](CO)C(=O)O)[C@@H](C)CC` [GIGKFLHSAKKFGKAFAGEIMNS], for which the MIC is 8 µM (≈ 19.5 µg/mL) in test [16], not below 64 µM in test [17], not below 64 µM in test [18] and not below 64 µM in test [19].

For the molecule `CC[C@H](C)[C@H](NC(=O)CN)C(=O)N[C@@H](Cc1cnc[nH]1)C(=O)N[C@@H](C)C(=O)N[C@H](C(=O)N[C@@H](CC(C)C)C(=O)N[C@@H](CCCCN)C(=O)N[C@@H](Cc1ccc(O)cc1)C(=O)NCC(=O)N[C@@H](CCCCN)C(=O)N1CCC[C@H]1C(=O)N[C@@H](CO)C(N)=O)[C@@H](C)CC` [GIHAILKYGKPS], the MIC in test [20] was not below 50 µM; in test [21], 30 µM (≈ 38.5 µg/mL); in [22] it was not below 50 µM; in test [23], more than 50 µM; in test [24], 5 µM (≈ 6.41 µg/mL).

For the molecule `CC[C@H](C)[C@H](NC(=O)[C@H](Cc1c[nH]c2ccccc12)NC(=O)[C@@H]1CCCN1C(=O)[C@H](CC(C)C)NC(=O)CN)C(=O)N[C@@H](CC(C)C)C(=O)N[C@@H](CC(C)C)C(=O)N[C@@H](CCCN=C(N)N)C(=O)N[C@@H](Cc1c[nH]c2ccccc12)C(=O)N[C@@H](CC(C)C)C(=O)N[C@@H](Cc1ccccc1)C(=O)N[C@@H](Cc1ccccc1)C(=O)N[C@@H](CCCN=C(N)N)C(=O)NCC(=O)O` [GLPWILLRWLFFRG], the minimum inhibitory concentration (MIC) was not below 200 µM in test [25]; not below 100 µM in [26]; not below 200 µM in test [27]; 6 µM (≈ 10.6 µg/mL) in test [28]; more than 200 µM in test [8]; not below 200 µM in [29]. For the same molecule, the MIC is 100 µM (≈ 177 µg/mL) in test [23], 3 µM (≈ 5.32 µg/mL) in test [30] and 25 µM (≈ 44.4 µg/mL) in test [31].

`CC[C@H](C)[C@H](N)C(=O)N[C@@H](CCCN=C(N)N)C(=O)N1CCC[C@H]1C(=O)N[C@@H](CCCN=C(N)N)C(=O)N1CCC[C@H]1C(=O)N1CCC[C@H]1C(=O)N[C@@H](CCCN=C(N)N)C(=O)N[C@@H](CC(C)C)C(=O)N1CCC[C@H]1C(=O)N[C@@H](CCCN=C(N)N)C(=O)N1CCC[C@H]1C(=O)N[C@@H](CCCN=C(N)N)C(=O)N1CCC[C@H]1C(=O)N[C@@H](CCCN=C(N)N)C(=O)N1CCC[C@H]1C(=O)N[C@@H](CC(C)C)C(=O)N1CCC[C@H]1C(=O)N[C@@H](Cc1ccc(O)cc1)C(=O)N1CCC[C@H]1C(=O)N[C@@H](CCCN=C(N)N)C(=O)N1CCC[C@H]1C(=O)O` [IRPRPPRLPRPRPRPLPYPRP]: the MIC in test [6] was 8 µM (≈ 20.7 µg/mL); in [32], not below 32 µM; in test [33] it was 4 µM (≈ 10.3 µg/mL); in the test on Escherichia coli BW25113 it was 8 µM (≈ 20.7 µg/mL).

Source of the values: DBAASP.
